Assay results published in ChEMBL document CHEMBL5357019, “Targeted Combination Therapies: A New Frontier in the Treatment of TP53 and KRAS Mutation-Associated Cancers” (2024).

What was measured:
Assay type in all cases: functional
SW837 [1] = assay: Antitumor activity against human SW837 cells xenografted in mouse assessed as tumor growth inhibition at 60 mg/kg, po administered once daily for 18 days relative to control; conditions: SW837, 432 h, time 18 day, read-out: TGI
SW837 [2] = assay: Synergistic antitumor activity against human SW837 cells assessed as tumor growth inhibition at 60 mg/kg, po once daily for 18 days co-administered with sotorasib relative to control; conditions: SW837, 432 h, time 18 day, read-out: TGI
NCI-H358 [3] = assay: Synergistic antitumor activity against human NCI-H358 cells assessed as inhibition of cell growth at 300 nM incubated for 72 hrs in presence of sotorasib by Celltiter Glo assay relative to control
NCI-H23 [4] = assay: Synergistic antitumor activity against human NCI-H23 cells assessed as inhibition of cell growth at 120 nM incubated for 72 hrs in presence of sotorasib by Celltiter Glo assay relative to control
MIA PaCa-2 [5] = assay: Synergistic antitumor activity against human MIA PaCa-2 cells assessed as inhibition of cell growth at 1000 nM incubated for 72 hrs in the presence of sotorasib by Celltiter Glo assay
NCI-H358 [6] = assay: Antitumor activity against human NCI-H358 cells assessed as inhibition of cell growth at 300 nM incubated for 72 hrs by Celltiter Glo assay relative to control
NCI-H23 [7] = assay: Antitumor activity against human NCI-H23 cells assessed as inhibition of cell growth at 120 nM incubated for 72 hrs by Celltiter Glo assay relative to control
SW837 [8] = assay: Synergistic antitumor activity against human SW837 cells assessed as inhibition of cell growth at 1000 nM incubated for 72 hrs in presence of sotorasib by Celltiter Glo assay relative to control
MIA PaCa-2 [9] = assay: Antitumor activity against human MIA PaCa-2 cells assessed as inhibition of cell growth at 1000 nM incubated for 72 hrs by Celltiter Glo assay
SW837 [10] = assay: Antitumor activity against human SW837 cells assessed as inhibition of cell growth at 1000 nM incubated for 72 hrs by Celltiter Glo assay relative to control
SW837 [11] = assay: Synergistic antitumor activity against human SW837 cells assessed as tumor regression at 60 mg/kg, po once daily for 18 days co-administered with sotorasib relative to control; conditions: time 18 day
SW837 [12] = assay: Antitumor activity against human SW837 cells assessed as inhibition of cell growth at 12 nM incubated for 72 hrs by Celltiter Glo assay relative to control
NCI-H23 [13] = assay: Antitumor activity against human NCI-H23 cells assessed as inhibition of cell growth at 40 nM incubated for 72 hrs by Celltiter Glo assay relative to control
SW837 [14] = assay: Antitumor activity against human SW837 cells xenografted in mouse assessed as tumor growth inhibition at 30 mg/kg, po administered once daily for 18 days relative to control; conditions: SW837, 432 h, time 18 day, read-out: TGI
NCI-H358 [15] = assay: Antitumor activity against human NCI-H358 cells assessed as inhibition of cell growth at 10 nM incubated for 72 hrs by Celltiter Glo assay relative to control
MIA PaCa-2 [16] = assay: Antitumor activity against human MIA PaCa-2 cells assessed as inhibition of cell growth at 350 nM incubated for 72 hrs by Celltiter Glo assay

C=CCn1c(=O)c2cnc(Nc3ccc(N4CCN(C)CC4)cc3)nc2n1-c1ccc2c(n1)[C@@](O)(CC)CC2 [AZENOSERTIB]
inhibition in vivo at 60 mg/kg (SW837 [1]): 72% | inhibition in vivo at 60 mg/kg (SW837 [2]): 109% | inhibition at 0.3 µM (NCI-H358 [3]): 55.6% | inhibition at 0.12 µM (NCI-H23 [4]): 53% | inhibition at 1 µM (MIA PaCa-2 [5]): 76% | inhibition at 0.3 µM (NCI-H358 [6]): 31.5% | inhibition at 0.12 µM (NCI-H23 [7]): 16.5% | inhibition at 1 µM (SW837 [8]): 45.4% | inhibition at 1 µM (MIA PaCa-2 [9]): 47% | inhibition at 1 µM (SW837 [10]): 28.8% | Activity (SW837 [11]): 23%

C=CC(=O)N1CCN(c2nc(=O)n(-c3c(C)ccnc3C(C)C)c3nc(-c4c(O)cccc4F)c(F)cc23)[C@@H](C)C1 [SOTORASIB]
inhibition at 0.012 µM (SW837 [12]): 20.7% | inhibition at 0.04 µM (NCI-H23 [13]): 27.8% | inhibition in vivo at 30 mg/kg (SW837 [14]): 80% | inhibition at 0.01 µM (NCI-H358 [15]): 24% | inhibition at 0.35 µM (MIA PaCa-2 [16]): 39%
